The record followed here is US20120003262A1, “ANTICANCER HEALTH FOOD CONTAINING PHELLINUS LINTEUS AND VEGETABLE WORMS” (HAN KOOK SHIN YAK CO., LTD., priority 2008, published 2012).

This assay deals with lung cancer cell (Lewis Lung Carcinoma: LLC). Nature of the assay: Anticancer animal test: Lewis Lung Carcinoma transplanted to mice, tumor volume and weight after 14 days of administration. It is filed as in vivo, mouse. To be noted: LLC-transplanted BDF1 male mice, extracts 200 mg/kg orally daily, Taxol 50 mg/kg intraperitoneally daily, for 14 days. The procedure:
In order to test an anticancer effect of the mixture extract of Phellinus linteus and vegetable worms, from Examples 1 to 7, and Comparative 1, an animal test was carried out. A mouse used for the experiment was bought from Jung Ang Lab. Animal Inc. (black, Japan, BDF1 male, weight: 20±2 g). The breeding temperature was 22±2° C., and solid feed stuff (Samyang feed Co.) and water were sufficiently supplied. […]
A solvent for the extraction was an extra pure reagent (E.P.). For the test sample, a sterilized saline solution manufactured by Daihan Pharm Co. Ltd. was used. For the culture of a cancer cell, an RPMI 1640 medium (WelGENE Inc.) was used, and Trypsin-EDTA was manufactured by GIBCO. Besides, a test tube required for cell culture, a culture flask, and a filter for obtaining a cancer cell were manufactured by Falcon. Devices used for cancer transplantation were disinfected at 120° C. for 30 min, and a cancer volume was measured by a Digital Caliper.
A lung cancer cell (Lewis Lung Carcinoma: LLC) used for the experiment was distributed from the Korea Research Institute of Bioscience and Biotechnology. The lung cancer cell (Lewis Lung Carcinoma: LLC) was cultured by RPMI 1640 medium added with 10% FBS in a 37° C. incubator, and for the detachment from an attachment surface, Trypsin-EDTA was used. When the cells are filled up in a 200 ml culture flask, they were transplanted to two animals. After the cells were grown in vivo, they were used for an animal test.
In an anticancer animal test, a tumor grown up to a size of about 15×15×15 mm^3 was separated, and a cancer cell was separated from other cells by using a filer (Falcon). […] From the day after the cancer transplantation, for 14 days, powder obtained by mixing Phellinus linteus and vegetable worms at a weight ratio of 1:1 (Example 1), 1:3(Example 2), 3:1(Example 3), 1:5(Example 4), 5:1(Example 5), 1:10(Example 6), 10:1(Example 7) was orally administered daily to a black mouse (Japan) in an amount of 200 mg/kg. Meanwhile, as a positive control group, Taxol was intraperitoneally injected daily in an amount of 50 mg/kg once a day for 14 days. After 14 days, the administration of the extract powder of Phellinus linteus and vegetable worms was stopped, and a Digital Caliper was used to measure the results. […] After the measurement of a tumor volume, a tumor lump was obtained through an operation and its weight was measured. An inhibition ratio of tumor weight (IRTW) was calculated by (TW of control−TW of test)×100/TW of control.
All data were indicated by mean±S.D., and the analysis was carried out by Anova test. Also, when p values are 0.05 or less, they were determined to have significance.

As for `CC(=O)O[C@H]1C(=O)[C@@]2(C)[C@H]([C@H](OC(=O)c3ccccc3)[C@]3(O)C[C@H](OC(=O)[C@H](O)[C@@H](NC(=O)c4ccccc4)c4ccccc4)C(C)=C1C3(C)C)[C@]1(OC(C)=O)CO[C@@H]1C[C@@H]2O` [Taxol], the “Tumor volume inhibiting ratio” value ((TV of control−TV of test)×100/TV of control) worked out at 67%. Also, the “Tumor weight inhibiting ratio” value ((TW of control−TW of test)×100/TW of control) is recorded as 64%. In addition, for the setting “mean±S.D., 5 mice”, the Tumor size stood at 649 ± 182 mm^3 and the Tumor weight stood at 0.61 ± 0.3 g.
